Source: patent US20240317780A1, “RADIOPHARMACEUTICAL SOMATOSTATIN RECEPTOR LIGANDS AND PRECURSORS THEREOF” (Technische Universität München, priority 2021, published 2024)

Target: T1, SST2 (Homo sapiens, UniProt P30874)
T1 construct: expressed in transfected cells; host or cells: CHO (Chinese hamster ovary) cells
T1 sequence (P30874 whole entry, species assumed): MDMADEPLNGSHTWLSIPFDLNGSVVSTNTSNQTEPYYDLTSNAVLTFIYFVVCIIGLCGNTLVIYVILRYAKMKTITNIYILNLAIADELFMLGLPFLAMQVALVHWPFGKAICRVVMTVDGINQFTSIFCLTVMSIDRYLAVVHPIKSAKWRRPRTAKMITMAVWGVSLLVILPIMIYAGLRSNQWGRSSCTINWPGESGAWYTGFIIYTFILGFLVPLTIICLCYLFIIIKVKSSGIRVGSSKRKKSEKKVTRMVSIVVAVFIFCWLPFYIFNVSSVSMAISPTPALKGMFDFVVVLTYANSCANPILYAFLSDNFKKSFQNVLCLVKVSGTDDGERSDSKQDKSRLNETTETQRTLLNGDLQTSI
Assay: Determination of IC50: competitive binding against [125I]TOC on SST2-transfected CHO cells
Details: [125I]TOC reference radioligand, 60 min room temperature
Method: The SST2-transfected CHO cells were cultivated in Dulbecco's Modified Eagle Medium/Nutrient Mixture F-12 (DMEM/F-12) with Glutamax-I (1:1) (Gibco), supplemented with 10% fetal calf serum (FCS) and maintained at 37° C. in a humidified 5% CO2 atmosphere. […] After removal of the culture medium, the cells were treated once with 300 μL of HBSS-B (Hank's balanced salt solution, Biochrom, Berlin, Germany, with addition of 1% bovine serum albumin (BSA)) and left with 200 μL HBSS-B. Next, 25 μL per well of solutions, containing either HBSS-B (control) or the respective ligand in increasing concentration (10^−10-10^−4 M in HBSS-B, were added with subsequent addition of 25 μL of
[^125I]TOC ([^125I]Tyr^3-Octreotide) (1.0 nM) in HBSS-B. Each concentration is investigated in triplicate. After 60 min incubation at room temperature, the experiment was terminated by removal of the assay medium and consecutive rinsing with 300 μL of cold PBS. The media of both steps were combined in one fraction and represent the amount of unbound radioligand.
Afterwards, the cells were lysed with 300 μL of 1 M NaOH and united with the 300 μL 1 M NaOH of the following wash step. Quantification of bound and unbound radioligand was accomplished in a γ-counter.
Work on `C[C@@H](O)[C@H](NC(=O)C1CSSCC(NC(=O)C(Cc2ccccc2)NC(=O)CNC(=O)CNC(=O)[C@@H](CC(=O)O)NC(=O)C(CC(=O)O)NC(=O)[C@@H](CNC(=O)CC[C@H](C(=O)O)N2CCN(CC(=O)O)CCN(CC(=O)O)CCN(CC(=O)O)CC2)NC(=O)C(CN)NC(=O)c2ccc([Si](F)(C(C)(C)C)C(C)(C)C)cc2)C(=O)N[C@@H](Cc2ccc(O)cc2)C(=O)NC(Cc2c[nH]c3ccccc23)C(=O)N[C@@H](CCCCN)C(=O)N[C@@H]([C@@H](C)O)C(=O)N1)C(=O)O` (stereo partly drawn) (natGa complex, metal not drawn) [[Ga]20] yielded an IC50 of 12.7 ± 1 nM.
`C[C@@H](O)[C@H](NC(=O)C1CSSCC(NC(=O)C(Cc2ccccc2)NC(=O)CNC(=O)CNC(=O)CNC(=O)C(CC(=O)O)NC(=O)[C@@H](CC(=O)O)NC(=O)C(CNC(=O)C[N+](C)(C)Cc2ccc([Si](F)(C(C)(C)C)C(C)(C)C)cc2)NC(=O)CN2CCN(CC(=O)O)CCN(CC(=O)O)CCN(CC(=O)O)CC2)C(=O)N[C@@H](Cc2ccc(O)cc2)C(=O)NC(Cc2c[nH]c3ccccc23)C(=O)N[C@@H](CCCCN)C(=O)N[C@@H]([C@@H](C)O)C(=O)N1)C(=O)O` (stereo partly drawn) (natGa complex, metal not drawn) [[Ga]44] showed an IC50 of 5.45 ± 0.5 nM.
`C[C@@H](O)[C@H](NC(=O)C1CSSCC(NC(=O)C(Cc2ccccc2)NC(=O)CNC(=O)CNC(=O)CNC(=O)C(CC(=O)O)NC(=O)[C@@H](CC(=O)O)NC(=O)C(CCC(=O)O)NC(=O)[C@@H](CNC(=O)C[N+](C)(C)Cc2ccc([Si](F)(C(C)(C)C)C(C)(C)C)cc2)NC(=O)CN2CCN(CC(=O)O)CCN(CC(=O)O)CCN(CC(=O)O)CC2)C(=O)N[C@@H](Cc2ccc(O)cc2)C(=O)NC(Cc2c[nH]c3ccccc23)C(=O)N[C@@H](CCCCN)C(=O)N[C@@H]([C@@H](C)O)C(=O)N1)C(=O)O` (stereo partly drawn) (natGa complex, metal not drawn) [[Ga]47] showed an IC50 of 7.58 ± 0.58 nM.

Test system: not listed separately
Assay: Octanol-water distribution coefficient (logD pH 7.4) of the labeled tracer
Assay type: physicochemical
Details: n-octanol/PBS pH 7.4, room temperature
Method: Approximately 1 MBq of the labeled tracer was dissolved in 1 mL of a 1:1 mixture (by volumes) of phosphate buffered saline (PBS, pH 7.4) and n-octanol in an Eppendorf tube. After vigorous mixing of the suspension for 3 minutes at room temperature, the vial was centrifuged at 15000 g for 5 minutes (Biofuge 15, Heraus Sepatech, Osterode, Germany) and 100 μL aliquots of both layers were measured in a gamma counter. The experiment was repeated at least six times.
In the case of `C[C@@H](O)[C@H](NC(=O)C1CSSCC(NC(=O)C(Cc2ccccc2)NC(=O)COCCOCCNC(=O)C(CC(=O)O)NC(=O)[C@@H](CC(=O)O)NC(=O)C(CNC(=O)c2ccc([Si](F)(C(C)(C)C)C(C)(C)C)cc2)NC(=O)CCC(C(=O)O)N2CCN(CC(=O)O)CCN(CC(=O)O)CCN(CC(=O)O)CC2)C(=O)N[C@@H](Cc2ccc(O)cc2)C(=O)NC(Cc2c[nH]c3ccccc23)C(=O)N[C@@H](CCCCN)C(=O)N[C@@H]([C@@H](C)O)C(=O)N1)C(=O)O` (stereo partly drawn) (natGa complex, metal not drawn) [[Ga]1], the “LogDpH=7.4” value is reported as −2.02 ± 0.04.
With `C[C@@H](O)[C@H](NC(=O)C1CSSCC(NC(=O)C(Cc2ccccc2)NC(=O)COCCOCCNC(=O)C(CC(=O)O)NC(=O)[C@@H](CC(=O)O)NC(=O)C(CNC(=O)CCC(C(=O)O)N2CCN(CC(=O)O)CCN(CC(=O)O)CCN(CC(=O)O)CC2)NC(=O)c2ccc([Si](F)(C(C)(C)C)C(C)(C)C)cc2)C(=O)N[C@@H](Cc2ccc(O)cc2)C(=O)NC(Cc2c[nH]c3ccccc23)C(=O)N[C@@H](CCCCN)C(=O)N[C@@H]([C@@H](C)O)C(=O)N1)C(=O)O` (stereo partly drawn) (natGa complex, metal not drawn) [[Ga]2] the “LogDpH=7.4” value was −2.3 ± 0.09.
For `C[C@@H](O)[C@H](NC(=O)C1CSSCC(NC(=O)C(Cc2ccccc2)NC(=O)COCCOCCNC(=O)C(CC(=O)O)NC(=O)[C@@H](CC(=O)O)NC(=O)C(CNC(=O)c2ccc([Si](F)(C(C)(C)C)C(C)(C)C)cc2)NC(=O)CN2CCN(CC(=O)O)CCN(CC(=O)O)CCN(CC(=O)O)CC2)C(=O)N[C@@H](Cc2ccc(O)cc2)C(=O)NC(Cc2c[nH]c3ccccc23)C(=O)N[C@@H](CCCCN)C(=O)N[C@@H]([C@@H](C)O)C(=O)N1)C(=O)O` (stereo partly drawn) (natGa complex, metal not drawn) [[Ga]3], the “LogDpH=7.4” value was −1.87 ± 0.07.
In the case of `C[C@@H](O)[C@H](NC(=O)C1CSSCC(NC(=O)C(Cc2ccccc2)NC(=O)COCCOCCNC(=O)C(CC(=O)O)NC(=O)[C@@H](CC(=O)O)NC(=O)C(CNC(=O)CN2CCN(CC(=O)O)CCN(CC(=O)O)CCN(CC(=O)O)CC2)NC(=O)c2ccc([Si](F)(C(C)(C)C)C(C)(C)C)cc2)C(=O)N[C@@H](Cc2ccc(O)cc2)C(=O)NC(Cc2c[nH]c3ccccc23)C(=O)N[C@@H](CCCCN)C(=O)N[C@@H]([C@@H](C)O)C(=O)N1)C(=O)O` (stereo partly drawn) (natGa complex, metal not drawn) [[Ga]4], the “LogDpH=7.4” value is reported as −2.15 ± 0.11.
With `C[C@@H](O)[C@H](NC(=O)C1CSSCC(NC(=O)C(Cc2ccccc2)NC(=O)CNC(=O)CNC(=O)[C@@H](CC(=O)O)NC(=O)C(CC(=O)O)NC(=O)[C@@H](CNC(=O)CN2CCN(CC(=O)O)CCN(CC(=O)O)CCN(CC(=O)O)CC2)NC(=O)C(CN)NC(=O)c2ccc([Si](F)(C(C)(C)C)C(C)(C)C)cc2)C(=O)N[C@@H](Cc2ccc(O)cc2)C(=O)NC(Cc2c[nH]c3ccccc23)C(=O)N[C@@H](CCCCN)C(=O)N[C@@H]([C@@H](C)O)C(=O)N1)C(=O)O` (stereo partly drawn) [[Lu]19] the “LogDpH=7.4” value was −1.85 ± 0.02.
For `C[C@@H](O)[C@H](NC(=O)C1CSSCC(NC(=O)C(Cc2ccccc2)NC(=O)CNC(=O)CNC(=O)[C@@H](CC(=O)O)NC(=O)C(CC(=O)O)NC(=O)[C@@H](CNC(=O)CN2CCN(CC(=O)O)CCN(CC(=O)O)CCN(CC(=O)O)CC2)NC(=O)C[N+](C)(C)Cc2ccc([Si](F)(C(C)(C)C)C(C)(C)C)cc2)C(=O)N[C@@H](Cc2ccc(O)cc2)C(=O)NC(Cc2c[nH]c3ccccc23)C(=O)N[C@@H](CCCCN)C(=O)N[C@@H]([C@@H](C)O)C(=O)N1)C(=O)O` (stereo partly drawn) [[Lu]24], the “LogDpH=7.4” value was −1.90 ± 0.05.
For `C[C@@H](O)[C@H](NC(=O)C1CSSCC(NC(=O)C(Cc2ccccc2)NC(=O)CNC(=O)CNC(=O)CNC(=O)C(CC(=O)O)NC(=O)[C@@H](CC(=O)O)NC(=O)C(CNC(=O)C[N+](C)(C)Cc2ccc([Si](F)(C(C)(C)C)C(C)(C)C)cc2)NC(=O)CN2CCN(CC(=O)O)CCN(CC(=O)O)CCN(CC(=O)O)CC2)C(=O)N[C@@H](Cc2ccc(O)cc2)C(=O)NC(Cc2c[nH]c3ccccc23)C(=O)N[C@@H](CCCCN)C(=O)N[C@@H]([C@@H](C)O)C(=O)N1)C(=O)O` (stereo partly drawn) [[Lu]44], the “LogDpH=7.4” value was −1.98 ± 0.05.
With `C[C@@H](O)[C@H](NC(=O)C1CSSCC(NC(=O)C(Cc2ccccc2)NC(=O)CNC(=O)CNC(=O)CNC(=O)C(CC(=O)O)NC(=O)[C@@H](CC(=O)O)NC(=O)C(CCCCN)NC(=O)[C@@H](CNC(=O)C[N+](C)(C)Cc2ccc([Si](F)(C(C)(C)C)C(C)(C)C)cc2)NC(=O)CN2CCN(CC(=O)O)CCN(CC(=O)O)CCN(CC(=O)O)CC2)C(=O)N[C@@H](Cc2ccc(O)cc2)C(=O)NC(Cc2c[nH]c3ccccc23)C(=O)N[C@@H](CCCCN)C(=O)N[C@@H]([C@@H](C)O)C(=O)N1)C(=O)O` (stereo partly drawn) [[Lu]45] the “LogDpH=7.4” value was −2.10 ± 0.08.
For `C[C@@H](O)[C@H](NC(=O)C1CSSCC(NC(=O)C(Cc2ccccc2)NC(=O)CNC(=O)CNC(=O)CNC(=O)C(CC(=O)O)NC(=O)[C@@H](CC(=O)O)NC(=O)C(CCCNC(N)=O)NC(=O)[C@@H](CNC(=O)C[N+](C)(C)Cc2ccc([Si](F)(C(C)(C)C)C(C)(C)C)cc2)NC(=O)CN2CCN(CC(=O)O)CCN(CC(=O)O)CCN(CC(=O)O)CC2)C(=O)N[C@@H](Cc2ccc(O)cc2)C(=O)NC(Cc2c[nH]c3ccccc23)C(=O)N[C@@H](CCCCN)C(=O)N[C@@H]([C@@H](C)O)C(=O)N1)C(=O)O` (stereo partly drawn) [[Lu]46], the “LogDpH=7.4” value was −2.12 ± 0.05.
For `C[C@@H](O)[C@H](NC(=O)C1CSSCC(NC(=O)C(Cc2ccccc2)NC(=O)CNC(=O)CNC(=O)CNC(=O)C(CC(=O)O)NC(=O)[C@@H](CC(=O)O)NC(=O)C(CCC(=O)O)NC(=O)[C@@H](CNC(=O)C[N+](C)(C)Cc2ccc([Si](F)(C(C)(C)C)C(C)(C)C)cc2)NC(=O)CN2CCN(CC(=O)O)CCN(CC(=O)O)CCN(CC(=O)O)CC2)C(=O)N[C@@H](Cc2ccc(O)cc2)C(=O)NC(Cc2c[nH]c3ccccc23)C(=O)N[C@@H](CCCCN)C(=O)N[C@@H]([C@@H](C)O)C(=O)N1)C(=O)O` (stereo partly drawn) [[Lu]47], the “LogDpH=7.4” value was −2.29 ± 0.03.
For `C[C@@H](O)[C@H](NC(=O)C1CSSCC(NC(=O)C(Cc2ccccc2)NC(=O)[C@@H](CC(N)=O)NC(=O)C(CC(N)=O)NC(=O)[C@@H](CC(=O)O)NC(=O)C(CC(=O)O)NC(=O)[C@@H](CNC(=O)CN2CCN(CC(=O)O)CCN(CC(=O)O)CCN(CC(=O)O)CC2)NC(=O)C[N+](C)(C)Cc2ccc([Si](F)(C(C)(C)C)C(C)(C)C)cc2)C(=O)N[C@@H](Cc2ccc(O)cc2)C(=O)NC(Cc2c[nH]c3ccccc23)C(=O)N[C@@H](CCCCN)C(=O)N[C@@H]([C@@H](C)O)C(=O)N1)C(=O)O` (stereo partly drawn) [[Lu]48], the “LogDpH=7.4” value was −2.19 ± 0.05.
For `C[C@@H](O)[C@H](NC(=O)C1CSSCC(NC(=O)C(Cc2ccccc2)NC(=O)[C@@H](CC(N)=O)NC(=O)C(CC(N)=O)NC(=O)CNC(=O)C(CC(=O)O)NC(=O)[C@@H](CC(=O)O)NC(=O)C(CNC(=O)CN2CCN(CC(=O)O)CCN(CC(=O)O)CCN(CC(=O)O)CC2)NC(=O)C[N+](C)(C)Cc2ccc([Si](F)(C(C)(C)C)C(C)(C)C)cc2)C(=O)N[C@@H](Cc2ccc(O)cc2)C(=O)NC(Cc2c[nH]c3ccccc23)C(=O)N[C@@H](CCCCN)C(=O)N[C@@H]([C@@H](C)O)C(=O)N1)C(=O)O` (stereo partly drawn) [[Lu]49], the “LogDpH=7.4” value was −2.24 ± 0.06.
